Results from US10597388B2, “Pyridazinone herbicides” (FMC CORPORATION, priority 2014, dated 2020).

Assays:
Assay in all cases: Test C greenhouse herbicide test, pre- and postemergence
Type in all cases: in vivo
[1] = test system: barnyardgrass (Echinochloa crus-galli)
Text: (§1) Seeds of plant species selected from blackgrass (Alopecurus myosuroides), ryegrass, Italian (Italian ryegrass, Lolium multiflorum), wheat (winter wheat, Triticum aestivum), galium (catchweed bedstraw, Galium aparine), corn (Zea mays), large crabgrass, large (large crabgrass, Digitaria sanguinalis), foxtail, giant (giant foxtail, Setaria faberii), johnsongrass (Sorghum halepense), lambsquarters (Chenopodium album), morningglory (Ipomoea coccinea), nutsedge, yellow (yellow nutsedge, Cyperus esculentus), pigweed (Amaranthus retroflexus), ragweed (common ragweed, Ambrosia elatior), soybean (Glycine max), barnyardgrass (Echinochloa crus-galli), oilseed rape (Brassica napus), waterhemp (common waterhemp, Amaranthus rudis), and velvetleaf (Abutilon theophrasti) were planted into a blend of loam soil and sand and treated preemergence with test chemicals formulated in a non-phytotoxic solvent mixture which included a surfactant.
(§2) At the same time, plants selected from these crop and weed species and also chickweed (common chickweed, Stellaria media), kochia (Kochia scoparia), and oat, wild (wild oat, Avena fatua), were planted in pots containing Redi-Earth® planting medium (Scotts Company, 14111 Scottslawn Road, Marysville, Ohio 43041) comprising spaghnum peat moss, vermiculite, wetting agent and starter nutrients and treated with postemergence applications of test chemicals formulated in the same manner. Plants ranged in height from 2 to 18 cm (1- to 4-leaf stage) for postemergence treatments. Treated plants and controls were maintained in a greenhouse for 13 to 15 d, after which time all species were compared to controls and visually evaluated. Plant response ratings, summarized in Table C, are based on a scale of 0 to 100 where 0 is no effect and 100 is complete control. A dash (-) response means no test result.

[2] = test system: blackgrass (Alopecurus myosuroides)
Text: as §1, §2

[3] = test system: corn (Zea mays)
Text: as §1, §2

[4] = test system: crabgrass, large (large crabgrass, Digitaria sanguinalis)
Text: as §1, §2

[5] = test system: foxtail, giant (giant foxtail, Setaria faberii)
Text: as §1, §2

[6] = test system: galium (catchweed bedstraw, Galium aparine)
Text: as §1, §2

[7] = test system: lambsquarters (Chenopodium album)
Text: as §1, §2

[8] = test system: morningglory (Ipomoea coccinea)
Text: as §1, §2

[9] = test system: nutsedge, yellow (yellow nutsedge, Cyperus esculentus)
Text: as §1, §2

[10] = test system: oilseed rape (Brassica napus)
Text: as §1, §2

[11] = test system: ragweed (common ragweed, Ambrosia elatior)
Text: as §1, §2

[12] = test system: ryegrass, Italian (Italian ryegrass, Lolium multiflorum)
Text: as §1, §2

[13] = test system: soybean (Glycine max)
Text: as §1, §2

[14] = test system: velvetleaf (Abutilon theophrasti)
Text: as §1, §2

[15] = test system: waterhemp (common waterhemp, Amaranthus rudis)
Text: as §1, §2

[16] = Postemergence, 31 g ai/ha, 0 to 100 scale (0 no effect, 100 complete control)
[17] = Postemergence, 125 g ai/ha, scale 0 to 100, 0 is no effect, 100 is complete control
[18] = Postemergence, 250 g ai/ha, scale 0 to 100, 0 no effect, 100 complete control, 13 to 15 d
[19] = Preemergence, 31 g ai/ha, scale 0 to 100, 0 is no effect, 100 is complete control
[20] = Preemergence, 62 g ai/ha, scale 0 to 100, 0 is no effect, 100 is complete control
[21] = Preemergence, 125 g ai/ha, scale 0 to 100, 0 is no effect, 100 is complete control
[22] = Preemergence, 250 g ai/ha, scale 0 to 100, 0 no effect, 100 complete control
[23] = postemergence, 62 g ai/ha, scale 0 to 100, 0 no effect, 100 complete control

Cc1cc2ccccc2c(-c2c(O)c(C)nn(C)c2=O)c1C [Compound 34]
Barnyardgrass plant response rating [1, 16]: 20
Plant response rating, Barnyardgrass [1, 17]: 35
Plant response rating, Barnyardgrass [1, 18]: 35
Plant response rating, Barnyardgrass [1, 19]: 60
Plant response rating, Barnyardgrass [1, 20]: 55
Plant response rating, Barnyardgrass [1, 21]: 65
Barnyardgrass plant response rating [1, 22]: 75
Barnyardgrass plant response rating [1, 23]: 25
Blackgrass plant response rating [2, 16]: 10
Plant response rating, Blackgrass [2, 17]: 35
Plant response rating, Blackgrass [2, 18]: 60
Plant response rating, Blackgrass [2, 19]: 5
Plant response rating, Blackgrass [2, 20]: 50
Plant response rating, Blackgrass [2, 21]: 85
Blackgrass plant response rating [2, 22]: 90
Blackgrass plant response rating [2, 23]: 10
Corn plant response rating [3, 16]: 0
Plant response rating, Corn [3, 17]: 5
Plant response rating, Corn [3, 18]: 5
Plant response rating, Corn [3, 19]: 0
Plant response rating, Corn [3, 20]: 0
Plant response rating, Corn [3, 21]: 10
Corn plant response rating [3, 22]: 0
Corn plant response rating [3, 23]: 5
Crabgrass, Large plant response rating [4, 16]: 5
Plant response rating, Crabgrass, Large [4, 17]: 20
Plant response rating, Crabgrass, Large [4, 18]: 25
Plant response rating, Crabgrass, Large [4, 19]: 0
Plant response rating, Crabgrass, Large [4, 20]: 10
Plant response rating, Crabgrass, Large [4, 21]: 25
Crabgrass, Large plant response rating [4, 22]: 30
Crabgrass, Large plant response rating [4, 23]: 10
Foxtail, Giant plant response rating [5, 16]: 10
Plant response rating, Foxtail, Giant [5, 17]: 25
Plant response rating, Foxtail, Giant [5, 18]: 35
Plant response rating, Foxtail, Giant [5, 19]: 0
Plant response rating, Foxtail, Giant [5, 20]: 65
Plant response rating, Foxtail, Giant [5, 21]: 75
Foxtail, Giant plant response rating [5, 22]: 70
Foxtail, Giant plant response rating [5, 23]: 20
Galium plant response rating [6, 16]: 90
Plant response rating, Galium [6, 17]: 95
Plant response rating, Galium [6, 18]: 95
Plant response rating, Galium [6, 19]: 95
Plant response rating, Galium [6, 20]: 95
Plant response rating, Galium [6, 21]: 90
Galium plant response rating [6, 22]: 100
Galium plant response rating [6, 23]: 95
Lambsquarters plant response rating [7, 16]: 90
Plant response rating, Lambsquarters [7, 17]: 95
Plant response rating, Lambsquarters [7, 18]: 100
Plant response rating, Lambsquarters [7, 19]: 80
Plant response rating, Lambsquarters [7, 20]: 90
Plant response rating, Lambsquarters [7, 21]: 80
Lambsquarters plant response rating [7, 22]: 75
Lambsquarters plant response rating [7, 23]: 90
Morningglory plant response rating [8, 16]: 85
Plant response rating, Morningglory [8, 17]: 95
Plant response rating, Morningglory [8, 18]: 98
Plant response rating, Morningglory [8, 19]: 70
Plant response rating, Morningglory [8, 20]: 80
Plant response rating, Morningglory [8, 21]: 85
Morningglory plant response rating [8, 22]: 95
Morningglory plant response rating [8, 23]: 98
Nutsedge, Yellow plant response rating [9, 16]: 45
Plant response rating, Nutsedge, Yellow [9, 17]: 85
Plant response rating, Nutsedge, Yellow [9, 18]: 85
Plant response rating, Nutsedge, Yellow [9, 19]: 25
Plant response rating, Nutsedge, Yellow [9, 20]: 25
Plant response rating, Nutsedge, Yellow [9, 21]: 35
Nutsedge, Yellow plant response rating [9, 22]: 65
Nutsedge, Yellow plant response rating [9, 23]: 60
Oilseed Rape plant response rating [10, 16]: 30
Plant response rating, Oilseed Rape [10, 17]: 50
Plant response rating, Oilseed Rape [10, 18]: 20
Plant response rating, Oilseed Rape [10, 19]: 10
Plant response rating, Oilseed Rape [10, 20]: 25
Plant response rating, Oilseed Rape [10, 21]: 90
Oilseed Rape plant response rating [10, 22]: 90
Oilseed Rape plant response rating [10, 23]: 30
Ragweed plant response rating [11, 16]: 85
Plant response rating, Ragweed [11, 17]: 95
Plant response rating, Ragweed [11, 18]: 95
Plant response rating, Ragweed [11, 19]: 80
Plant response rating, Ragweed [11, 20]: 80
Plant response rating, Ragweed [11, 21]: 90
Ragweed plant response rating [11, 22]: 95
Ragweed plant response rating [11, 23]: 98
Ryegrass, Italian plant response rating [12, 16]: 80
Plant response rating, Ryegrass, Italian [12, 17]: 90
Plant response rating, Ryegrass, Italian [12, 18]: 90
Plant response rating, Ryegrass, Italian [12, 19]: 45
Plant response rating, Ryegrass, Italian [12, 20]: 85
Plant response rating, Ryegrass, Italian [12, 21]: 85
Ryegrass, Italian plant response rating [12, 22]: 95
Ryegrass, Italian plant response rating [12, 23]: 80
Soybean plant response rating [13, 16]: 5
Plant response rating, Soybean [13, 17]: 15
Plant response rating, Soybean [13, 18]: 5
Plant response rating, Soybean [13, 20]: 10
Plant response rating, Soybean [13, 21]: 0
Soybean plant response rating [13, 22]: 5
Soybean plant response rating [13, 23]: 5
Velvetleaf plant response rating [14, 16]: 50
Plant response rating, Velvetleaf [14, 17]: 100
Plant response rating, Velvetleaf [14, 18]: 90
Plant response rating, Velvetleaf [14, 20]: 80
Plant response rating, Velvetleaf [14, 21]: 85
Velvetleaf plant response rating [14, 22]: 98
Velvetleaf plant response rating [14, 23]: 80
Waterhemp plant response rating [15, 16]: 85
Plant response rating, Waterhemp [15, 17]: 90
Plant response rating, Waterhemp [15, 18]: 98
Plant response rating, Waterhemp [15, 20]: 100
Plant response rating, Waterhemp [15, 21]: 100
Waterhemp plant response rating [15, 22]: 100
Waterhemp plant response rating [15, 23]: 85
